Measured values taken from patent publication US20210177732A1, “COMBINATION OF EXTRACTS OF QUINQUINA AND OF LEONTOPODIUM ALPINUM AND OF THE MANGANESE SALT OF L-PYRROLIDONE CARBOXYLIC ACID IN THE TREATMENT OF ALOPECIA” (PIERRE FABRE DERMO-COSMETIQUE, priority 2018, published 2021).

B1: Wnt3a: positive control, Wnt3a protein at 10 nM (protein, UniProt P56704 19-352, looked up)
Protein Wnt-3a: SYPIWWSLAVGPQYSSLGSQPILCASIPGLVPKQLRFCRNYVEIMPSVAEGIKIGIQECQHQFRGRRWNCTTVHDSLAIFGPVLDKATRESAFVHAIASAGVAFAVTRSCAEGTAAICGCSSRHQGSPGKGWKWGGCSEDIEFGGMVSREFADARENRPDARSAMNRHNNEAGRQAIASHMHLKCKCHGLSGSCEVKTCWWSQPDFRAIGDFLKDKYDSASEMVVEKHRESRGWVETLRPRYTYFKVPTERDLVYYEASPNFCEPNPETGSFGTRDRTCNVSSHGIDGCDLLCCGRGHNARAERRREKCRCVFHWCCYVSCQECTRVYDVHTCK

System: Wnt/β-catenin pathway
Test: Activation of the Wnt/β-catenin pathway, TCF/LEF luciferase reporter in dermal papilla cells derived from human hair follicles
Format: cell-based
Settings: human follicular dermal papilla cells, 24 h incubation, Wnt3a 10 nM, Mn-PCA 500 μM, edelweiss 30 μg/mL; for Average RLU (luminescence due to luciferase expression): average of 3 donors (6 experiments), cinchona 10 μg/mL, combination at same concentrations, control 410.2; for activation of the Wnt-β-catenin pathway versus control: combination 10 μg/mL + 500 μM + 30 μg/mL
Description: The aim of this study is to evaluate the effects of the combination of an extract of cinchona, manganese salt of L-pyrrolidone carboxylic acid and an extract of Leontopodium alpinum on the activation of the Wnt/β-catenin pathway on dermal papilla cells derived from human hair follicles.
The studies are carried out on human cells derived from the dermal papillae of the follicles of three donors. The cells are inoculated in 96-well plates and cultured for 24 h with the necessary supplements. The cells are incubated with specific reagents in order to be transfected with a lentivirus (expressing the luciferase gene under the control of the Wnt/β-catenin promoter (TCF/LEF transcriptional response element). The transfected cells are incubated for 24 hours with the products to be tested, i.e. either with an extract of cinchona (10 μg/ml) diluted in DMSO, or with the manganese salt of L-pyrrolidone carboxylic acid (500 μM) diluted in water, or with an extract of Leontopodium alpinum (30 μg/ml) also diluted in water, or with the combination of the three compounds at the same concentrations as above. The cinchona used in this study is harvested in Ecuador, in the forests of Echeandia. The extract of Leontopodium alpinum tested in this study comes from a variety called Leontopodium alpinum Helvetia. The extract tested corresponds to the commercial material Alpaflor® from the supplier DSM. The manganese salt of L-pyrrolidone carboxylic acid tested in this study corresponds to the commercial material Mangalidone® from the supplier Solabia. It is obtained by cyclisation of glutamic acid of plant origin. Its INCI name is manganese PCA and its CAS number is 29193-02-2. A positive control (Wnt3a protein at 10 nM) is also tested. Activation of the Wnt/β-catenin pathway is highlighted by the quantification of luminescence due to luciferase expression.
A statistical analysis is performed, an intergroup comparison is made by a repeated measures ANOVA followed by Dunnett's post-test on the raw data.

Molecule	Average RLU (luminescence due to luciferase expression)	activation of the Wnt-β-catenin pathway versus control
O=C1CC[C@@H](C(=O)[O-])N1.O=C1CC[C@@H](C(=O)[O-])N1.[Mn+2] [Mn-PCA (L), manganese salt of L-pyrrolidone carboxylic acid]	735.2 RLU	+77±17%
B1	2366.9 RLU	+451±93%
